# According to patent US5807878A, “Tetrasubstituted imidazoles” (Uclaf; Roussel, priority 1994, dated 1998):
# Read-outs that look alike come from different tables or passages of the source.
# Columns and labels:
# [1] = molecular target: T1, AT1 receptor of angiotensin II (Rattus norvegicus, UniProt P25095); experiment: Test on the AT1 receptor of angiotensin II (displacement of 125I angiotensin II, rat liver membranes); assay type: binding; conditions: 25° C., 150 minutes, pH 7.4
# T1 construct: A fresh membrane preparation obtained from rat's liver is used; from tissue; host or cells: rat liver membranes
# T1 sequence (P25095 1-359): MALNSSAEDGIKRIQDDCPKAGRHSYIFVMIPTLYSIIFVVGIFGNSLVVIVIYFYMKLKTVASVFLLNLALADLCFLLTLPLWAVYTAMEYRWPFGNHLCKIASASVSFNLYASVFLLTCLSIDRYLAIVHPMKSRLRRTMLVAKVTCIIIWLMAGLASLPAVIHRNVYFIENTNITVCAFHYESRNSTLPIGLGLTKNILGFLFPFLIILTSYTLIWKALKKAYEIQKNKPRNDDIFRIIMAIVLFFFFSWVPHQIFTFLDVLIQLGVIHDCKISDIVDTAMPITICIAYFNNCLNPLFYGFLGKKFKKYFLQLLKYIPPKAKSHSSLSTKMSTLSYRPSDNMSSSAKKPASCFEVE
# Method: 1--Test on the AT1 receptor of angiotensin II
# (§1) A fresh membrane preparation obtained from rat's liver is used. The tissue is ground up in a polytron in a 50 mM Tris buffer pH 7.4, the grinding is followed by 3 centrifugations at 30,000 g for 15 minutes with intermediate take up of the pellets in the Tris buffer pH 7.4.
# The last pellets are suspended in an incubation buffer (20 mM Tris, 135 mM NaCl, 10 mM KCl, 5 mM glucose, 135 mM MgCl2, 0.3 mM PMSF, 0.1 mM bacitracin, 0.1% lysozyme).
# (§2) 1 ml aliquoted fractions are distributed in glass tubes and ^125 I angiotensin II (25,000 DPM/tube) and the product to be studied are added. (The product is first tested at 3×10^-5 M three times). When the tested product displaces more than 50% of the radioactivity specifically bound to the receptor, it is tested again according to a range of 7 concentrations in order to determine the concentration which inhibits by 50% the radioactivity specifically bound to the receptor. In this way the 50% inhibitory concentration is determined).
# (§3) The non-specific bond is determined by the addition of the product of Example 94 of the European Patent 0,253,310, at 10^-5 M (three times). After incubation at 25° C. for 150 minutes, placing in a water bath at 0° C. for 5 minutes, filteration under vacuum and rinsing with Tris buffer pH 7.4, the radioactivity is counted in the presence of a scintillating solid.
# (§4) The result is expressed directly as the 50% inhibitory concentration (IC50), that is to say as the concentration of product studied, expressed in nM, necessary to displace 50% of the specific radioactivity fixed to the receptor studied.
# [2] = molecular target: T2, AT2 receptor of angiotensin II (Oryctolagus cuniculus, UniProt G1T351); experiment: Test on the AT2 receptor of angiotensin II (displacement of 125I angiotensin II, rabbit uterus membranes); assay type: binding; conditions: rabbit uterus membranes (estradiol pre-treated), 10 mM dithiothreitol preincubation, 25° C., 150 minutes, pH 7.4
# T2 construct: A fresh membrane preparation obtained from rabbit's uterus is used; from tissue; host or cells: rabbit uterus membranes (estradiol-pretreated, homogenate preincubated with 10 mM dithiothreitol)
# T2 sequence (G1T351 1-363): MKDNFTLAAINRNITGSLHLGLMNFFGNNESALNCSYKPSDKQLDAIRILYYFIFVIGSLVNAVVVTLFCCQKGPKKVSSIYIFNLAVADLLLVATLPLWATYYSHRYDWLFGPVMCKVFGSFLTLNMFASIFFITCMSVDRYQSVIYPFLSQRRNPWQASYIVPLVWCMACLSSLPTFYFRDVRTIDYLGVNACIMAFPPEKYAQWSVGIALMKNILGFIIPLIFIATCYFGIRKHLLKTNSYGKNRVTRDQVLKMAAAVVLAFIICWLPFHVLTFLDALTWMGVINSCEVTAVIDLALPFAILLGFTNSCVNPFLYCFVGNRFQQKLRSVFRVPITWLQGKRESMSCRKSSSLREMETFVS
# Method: 2) Test on the AT2 receptor of angiotensin II
# as §1, with “rabbit's uterus” for “rat's liver”, “used, pre-treated 4 days beforehand with 50 ug of estradiol administered by percutaneous route.” for “used.”, “7.4 and” for “7.4,”
# The last pellets are suspended in an incubation buffer (20 mM Tris, 135 mM NaCl, 10 mM KCl, 5 mM glucose, 10 mM MgCl2 6H2 O), 0.3 mM PMSF, 0.1 mM bacitracin, 0.1 o/oo lysozyme, pH 7.4).
# The homogenate obtained is preincubated for 20 minutes at 25° C. in the presence of 10 mM dithiothreitol, then brought back to 0°-4° C.
# as §2, with “The” for “(The”, “times.” for “times).”, “determined.” for “determined).”
# as §3, with “[…]” for “non-specific”, “EXP 655 (=PD 123-177 from Warner-Lambert)” for “the product of Example 94 of the European Patent 0,253,310,”, “(in triplicate).” for “(three times).”
# as §4
# [3] = system: angiotensin II; experiment: Test for antagonistic activity of angiotensin II in the demedullated rat; assay type: in vivo, rat (male Sprague Dawley); conditions: angiotensin II 0.75 micrograms/kg, read-out: ID50 (50% inhibitory dose of the pressure effect of angiotensin II)
# [4] = IV, injected 5 minutes before angiotensin II
IC50 [1] [nM],IC50 [2] [nM],SMILES,"ED50 [3, 4] [mg/kg]",ED50 ([3]; PO) [mg/kg]
0.4,2.5,"CCCc1nc(SC)c(C(=O)C[S+]([O-])c2ccccc2)n1Cc1ccc(-c2ccccc2S(=O)(=O)NC(=O)NCC2CCCC2)cc1 (racemic) [Example 46, (±) N-(((cyclopentylmethyl)amino)carbonyl) 4'-((4-(methylthio) 5-((phenylsulphinyl)acetyl) 2-propyl 1H-imidazol 1-yl)methyl) (1,1'-biphenyl) 2-sulphonamide]",,
0.09,2.09,"CCCc1nc(SC)c(C(=O)C[S+]([O-])c2ccccc2)n1Cc1ccc(-c2ccccc2S(=O)(=O)NC(=O)CCC2CCCC2)cc1 (racemic) [Example 47, (±) N-(4'-((4-(methylthio) 5-((phenylsulphinyl)acetyl) 2-propyl 1H-imidazol 1-yl)methyl) (1,1'-biphenyl-2yl)sulphonyl) cyclopentanepropanamide]",,
0.08,0.8,"CCCc1nc(SC)c(C(=O)C[S+]([O-])c2ccccc2)n1Cc1ccc(-c2ccccc2S(=O)(=O)NC(=O)NCc2ccccc2)cc1 (stereo not drawn) [Example 20, 4'-((4-(methylthio) 5-(2-(phenylsulphinyl)acetyl) 2-propyl 1H-imidazol-1-yl)methyl) N-(((phenylmethyl)amino)carbonyl) (1,1'-biphenyl) 2-sulphonamide]",0.04,0.8
0.08,1,"CCCCc1nc(SC)c(C(=O)CC(=O)OCC)n1Cc1ccc(-c2ccccc2S(=O)(=O)NC(=O)NCc2ccccc2)cc1 [Example 21, ethyl 2-butyl 4-(methylthio) beta-oxo-1-((2'-(((((phenylmethyl)amino)carbonyl)amino)sulphonyl) (1,1'-biphenyl) 4-yl)methyl) 1H-imidazole 5-propanoate]",0.08,
0.05,2.2,"CCCc1nc(SC)c(C(=O)C[S+]([O-])c2ccccc2)n1Cc1ccc(-c2ccccc2S(=O)(=O)NC(=O)NCc2cccs2)cc1 (stereo not drawn) [Example 34, 4'-((4-(methylthio) 5-((phenylsulphinyl)acetyl) 2-propyl 1H-imidazol-1-yl)methyl) N-(((2-thienylmethyl)amino)carbonyl) (1,1'-biphenyl) 2-sulphonamide]",,

# Further lines, the molecule ahead of its results:
SMILES,IC50 [1] [nM],IC50 [2] [nM],"ED50 [3, 4] [mg/kg]",ED50 ([3]; PO) [mg/kg]
"CCCCc1nc(SC)c(C(=O)C(=O)O)n1Cc1ccc(-c2ccccc2S(=O)(=O)NC(=O)NCC2CCCCC2)cc1 [Example 7, 2-butyl 1-((2'-(((((cyclohexylmethyl)amino)carbonyl)amino)sulphonyl) (1,1'-biphenyl) 4-yl)methyl) 4-methylthio alpha oxo-1H-imidazole 5-acetic acid]",0.7,6.8,,
"CCCCc1nc(SC)c(C(=O)C[S+](C)[O-])n1Cc1ccc(-c2ccccc2S(=O)(=O)NC(=O)NCc2ccccc2)cc1 (stereo not drawn) [Example 9, 4'-((2-butyl 5-(2-(methylsulphinyl)acetyl) 4-(methylthio) 1H-imidazol 1-yl)methyl) N-(((phenylmethyl)amino)carbonyl) (1,1'-biphenyl) 2-sulphonamide]",0.3,15,0.06,0.7
"CCCCc1nc(SC)c(C(=O)C(=O)O)n1Cc1ccc(-c2ccccc2S(=O)(=O)NC(=O)NCc2ccccc2)cc1 [Example 10, 2-butyl 4-(methylthio) alpha oxo 1-((2'-(((((phenylmethyl)amino)carbonyl)amino)sulphonyl) (1,1'-biphenyl) 4-yl)methyl) 1-H-imidazole 5-acetic acid]",0.18,38,,
"CCCCc1nc(SC)c(C(=O)C(=O)NCc2ccccc2)n1Cc1ccc(-c2ccccc2S(=O)(=O)NC(=O)NCc2ccccc2)cc1 [Example 11, 2-butyl 4-(methylthio) alpha oxo N-(phenylmethyl) 1-((2'-(((((phenylmethyl)amino)carbonyl)amino)sulphonyl) (1,1'-biphenyl) 4-yl)methyl) 1-H-imidazole 5-acetamide]",0.6,53,,
CCCCc1nc(SC)c(C(=O)CC(=O)OCC)n1Cc1ccc(-c2ccccc2S(=O)(=O)NC(=O)NCCC)cc1 [Example 12],0.2,83,,
CCCCc1nc(SC)c(C(=O)Nc2nnn[nH]2)n1Cc1ccc(-c2ccccc2S(=O)(=O)NC(=O)NCCC)cc1 [Example 13],0.24,24,0.12,
"CCCc1nc(SC)c(C(=O)Nc2nn[nH]n2)n1Cc1ccc(-c2ccccc2S(=O)(=O)NC(=O)NCc2ccccc2)cc1 [Example 15, 4-(methylthio) 1-((2'-(((((phenylmethyl)amino)carbonyl)amino)sulphonyl) (1,1'-biphenyl) 4-yl)methyl) 2-propyl N-(2H-tetrazol 5-yl) 1H-imidazole 5-carboxamide]",0.2,2,,
